# Legend:
# Type in all cases: in vivo
# Nightshade = test: Test C preemergence
# Sunflower [1] = test: Test C preemergence
# [2] = system: Surinam grass (Brachiaria decumbens); test: Test C preemergence
# Procedure, shortened: (§1)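 Visual injury scores of 0–100, with 100 meaning complete control, were given relative to controls after 12–14 days in the greenhouse. Treatments used a surfactant-containing non-phytotoxic solvent formulation, sprayed on seeded pots preemergence or on 1–4-leaf plants of 2–18 cm postemergence.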
# [3] = system: bermudagrass (Cynodon dactylon); test: Test C preemergence
# Procedure, shortened: as §1
# [4] = system: cocklebur (Xanthium strumarium); test: Test C preemergence
# Procedure, shortened: as §1
# corn (Zea mays) = test: Test C preemergence
# Procedure, shortened: as §1
# [5] = system: crabgrass (Digitaria sanguinalis); test: Test C preemergence
# Procedure, shortened: as §1
# [6] = system: giant foxtail (Setaria faberii); test: Test C preemergence
# Procedure, shortened: as §1
# [7] = system: goosegrass (Eleusine indica); test: Test C preemergence
# Procedure, shortened: as §1
# [8] = system: johnsongrass (Sorghum halepense); test: Test C preemergence
# Procedure, shortened: as §1
# kochia (Kochia scoparia) = test: Test C preemergence
# Procedure, shortened: as §1
# [9] = system: lambsquarters (Chenopodium album); test: Test C preemergence
# Procedure, shortened: as §1
# [10] = system: morningglory (Ipomoea hederacea); test: Test C preemergence
# Procedure, shortened: as §1
# [11] = system: pigweed (Amaranthus retroflexus); test: Test C preemergence
# Procedure, shortened: as §1
# soybean (Glycine max) = test: Test C preemergence
# Procedure, shortened: as §1
# [12] = system: velvetleaf (Abutilon theophrasti); test: Test C preemergence
# Procedure, shortened: as §1
# [13] = system: woolly cupgrass (Eriochloa villosa); test: Test C preemergence
# Procedure, shortened: as §1
# [14] = system: yellow nutsedge (Cyperus esculentus); test: Test C preemergence
# Procedure, shortened: as §1
# [15] = system: barnyardgrass (Echinochloa crus-galli); test: Test C flooded paddy test; conditions: for Barnyardgrass plant response rating: Flooded Paddy, scale 0 to 100, 0 no effect, 100 complete control; for Plant response rating, Barnyardgrass: flooded paddy test, scale 0 to 100 (0 no effect, 100 complete control)
# Procedure, shortened: (§2)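 Response on a 0-to-100 scale (no effect to complete control) was assessed by eye versus controls. Plants had reached 2 leaves when treated in flooded paddy conditions. The assessment took place after 12–14 days of greenhouse growth.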
# [16] = system: duck salad (Heteranthera limosa); test: Test C flooded paddy test; conditions: for Ducksalad plant response rating: Flooded Paddy, scale 0 to 100, 0 no effect, 100 complete control; for Plant response rating, Ducksalad: flooded paddy test, scale 0 to 100 (0 no effect, 100 complete control)
# Procedure, shortened: as §2
# [17] = system: smallflower flatsedge (Cyperus difformis); test: Test C flooded paddy test; conditions: for Flatsedge plant response rating: Flooded Paddy, scale 0 to 100, 0 no effect, 100 complete control; for Plant response rating, Flatsedge: flooded paddy test, scale 0 to 100 (0 no effect, 100 complete control)
# Procedure, shortened: as §2
# Sunflower [18] = test: Test C preemergence; conditions: Rate 250 g/ha, visual evaluation after 12 to 14 days
# [19] = Rate 62 g/ha, scale 0 to 100, 0 no effect, 100 complete control
# [20] = Preemergence, Rate 500 g/ha, scale 0 to 100
# [21] = preemergence, Rate 250 g/ha, visual evaluation after 12 to 14 days
# [22] = preemergence, Rate 125 g/ha, scale 0 to 100, 0 no effect, 100 complete control
compound,measurement,setting,value
O=C1C(n2ccc(C3CCCCC3)n2)SCN1c1cccc(OC(F)(F)F)c1 (centres unmarked) [Compound 50],"Plant response rating, Nightshade",Nightshade; [19],0
same,"Plant response rating, Nightshade","Nightshade; Rate 125 g/ha, scale 0 to 100, 0 no effect, 100 complete control",0
same,"Plant response rating, Nightshade","Nightshade; Rate 500 g/ha, scale 0 to 100",60
same,"Plant response rating, Sunflower",Sunflower [1]; [19],20
same,"Plant response rating, Sunflower","Sunflower [1]; Rate 500 g/ha, scale 0 to 100",60
same,"Plant response rating, Surinam grass",[2]; [20],50
same,"Plant response rating, Surinam grass",[2]; [19],20
same,"Plant response rating (0 to 100), Surinam grass",[2]; [21],50
same,"Plant response rating, Surinam grass",[2]; [22],30
same,"Plant response rating, Bermudagrass",[3]; [20],100
same,"Plant response rating, Bermudagrass",[3]; [19],100
same,"Plant response rating (0 to 100 where 0 is no effect and 100 is complete control), Bermudagrass",[3]; [21],100
same,"Plant response rating, Bermudagrass",[3]; [22],100
same,"Plant response rating, Cocklebur",[4]; [20],0
same,"Plant response rating (0 to 100), Cocklebur",[4]; [21],0
same,"Plant response rating, Cocklebur",[4]; [22],0
same,"Plant response rating, Corn",corn (Zea mays); [20],0
same,"Plant response rating, Corn",corn (Zea mays); [19],0
same,"Plant response rating (0 to 100), Corn",corn (Zea mays); [21],0
same,"Plant response rating, Corn",corn (Zea mays); [22],0
same,"Plant response rating, Crabgrass",[5]; [20],100
same,"Plant response rating, Crabgrass",[5]; [19],100
same,"Plant response rating (0 to 100), Crabgrass",[5]; [21],100
same,"Plant response rating, Crabgrass",[5]; [22],100
same,"Plant response rating, Foxtail, Giant",[6]; [20],100
same,"Plant response rating, Foxtail, Giant",[6]; [19],60
same,"Plant response rating (0 to 100), Foxtail, Giant",[6]; [21],20
same,"Plant response rating, Foxtail, Giant",[6]; [22],0
same,"Plant response rating, Goosegrass",[7]; [20],100
same,"Plant response rating, Goosegrass",[7]; [19],80
same,"Plant response rating (0 to 100), Goosegrass",[7]; [21],100
same,"Plant response rating, Goosegrass",[7]; [22],90
same,"Plant response rating, Johnsongrass",[8]; [20],90
same,"Plant response rating, Johnsongrass",[8]; [19],0
same,"Plant response rating (0 to 100), Johnsongrass",[8]; [21],70
same,"Plant response rating, Johnsongrass",[8]; [22],40
same,"Plant response rating, Kochia",kochia (Kochia scoparia); [20],20
same,"Plant response rating, Kochia",kochia (Kochia scoparia); [19],0
same,"Plant response rating (0 to 100), Kochia",kochia (Kochia scoparia); [21],0
same,"Plant response rating, Kochia",kochia (Kochia scoparia); [22],0
same,"Plant response rating, Lambsquarters",[9]; [20],70
same,"Plant response rating, Lambsquarters",[9]; [19],20
same,"Plant response rating (0 to 100), Lambsquarters",[9]; [21],70
same,"Plant response rating, Lambsquarters",[9]; [22],50
same,"Plant response rating, Morningglory",[10]; [20],30
same,"Plant response rating, Morningglory",[10]; [19],20
same,"Plant response rating (0 to 100), Morningglory",[10]; [21],30
same,"Plant response rating, Morningglory",[10]; [22],30
same,"Plant response rating, Pigweed",[11]; [20],90
same,"Plant response rating, Pigweed",[11]; [19],30
same,"Plant response rating (0 to 100), Pigweed",[11]; [21],20
same,"Plant response rating, Pigweed",[11]; [22],20
same,"Plant response rating, Soybean",soybean (Glycine max); [20],40
same,"Plant response rating (0 to 100), Soybean",soybean (Glycine max); [21],0
same,"Plant response rating, Soybean",soybean (Glycine max); [22],0
same,"Plant response rating, Velvetleaf",[12]; [20],0
same,"Plant response rating, Velvetleaf",[12]; [19],0
same,"Plant response rating (0 to 100), Velvetleaf",[12]; [21],0
same,"Plant response rating, Velvetleaf",[12]; [22],0
same,"Plant response rating, Cupgrass, Woolly",[13]; [20],90
same,"Plant response rating, Cupgrass, Woolly",[13]; [19],20
same,"Plant response rating (0 to 100), Cupgrass, Woolly",[13]; [21],90
same,"Plant response rating, Cupgrass, Woolly",[13]; [22],20
same,"Plant response rating, Nutsedge",[14]; [20],70
same,"Plant response rating, Nutsedge",[14]; [19],0
same,"Plant response rating (0 to 100), Nutsedge",[14]; [21],0
same,"Plant response rating, Nutsedge",[14]; [22],0
same,Barnyardgrass plant response rating,[15]; Rate 250 g/ha,70
same,Barnyardgrass plant response rating,[15]; Rate 500 g/ha,80
same,"Plant response rating, Barnyardgrass",[15]; Rate 62 g/ha,0
same,"Plant response rating, Barnyardgrass",[15]; Rate 125 g/ha,40
same,Ducksalad plant response rating,[16]; Rate 250 g/ha,80
same,Ducksalad plant response rating,[16]; Rate 500 g/ha,90
same,"Plant response rating, Ducksalad",[16]; Rate 62 g/ha,0
same,"Plant response rating, Ducksalad",[16]; Rate 125 g/ha,70
same,Flatsedge plant response rating,[17]; Rate 250 g/ha,90
same,Flatsedge plant response rating,[17]; Rate 500 g/ha,100
same,"Plant response rating, Flatsedge",[17]; Rate 62 g/ha,80
same,"Plant response rating, Flatsedge",[17]; Rate 125 g/ha,90
same,"Plant response rating (0 to 100), Sunflower",Sunflower [18],30
